From patent US4089965A, “Thiazolylphenylguanidines as antirhinovirus agents” (American Cyanamid Company, priority 1977, dated 1978)

Key:
Assay in all cases: Protection of tissue from cytopathic effects (plaque inhibition, filter paper disc or agar overlay)
Conditions in all cases: 33°, 3 to 5 days
[1] = test system: Rhinovirus strain 2
[2] = test system: Rhinovirus strain 5; note: test concentration or dose not given here
[3] = test system: Rhinovirus strain 1B
[4] = test system: Rhinovirus strain 14
[5] = test system: Rhinovirus strain 23; note: test concentration or dose not given here

Measured: Protection of tissue from destruction by virus

N=C(Nc1ccc(F)cc1)Nc1nc(-c2ccccc2)cs1 [1-(4-phenyl-2-thiazolyl)-3-(4-fluorophenyl) guanidine]
+: [1] | [2] | [3]

N=C(Nc1cccc(Cl)c1)Nc1nc(-c2ccccc2)cs1 [1-(4-phenyl-2-thiazolyl)-3-(3-chlorophenyl) guanidine]
+: [1]

N=C(Nc1ccc(C(=O)O)cc1)Nc1nc(-c2ccccc2)cs1 [1-(4-phenyl-2-thiazolyl)-3-(4-carboxyphenyl) guanidine]
+: all assays above

Cc1ccc(NC(=N)Nc2nc(-c3ccccc3)cs2)cc1 [1-(4-phenyl-2-thiazolyl)-3-(p-tolyl)guanidine]
+: all assays above

COC(=O)c1ccc(NC(=N)Nc2nc(-c3ccccc3)cs2)cc1 [1-(4-phenyl-thiazolyl)-3-(4-carbomethoxyphenyl)-guanidine]
+: [1] | [5]

Cc1ccc(NC(=N)Nc2nc(-c3ccc(Cl)cc3)cs2)cc1 [1-[4-(4-chlorophenyl)-2-thiazolyl-3-(p-tolyl)guanidine]]
+: [1] | [3]
